# “Also recorded” adds a separate entry of the source. Where no end group is shown, it is not given here.
# Tests used:
# [1] = test system: CYP450 enzymes; assay: processing by or inhibition of CYP450 enzymes; assay type: in vitro ADME
# [2] = test system: male C3H/HeN mice; assay: chemotherapy-induced oral and gastrointestinal mucositis in the mouse; assay type: in vivo
# Method: In each study, 5-fluorouracil (60 mg/kg IP) was administered to male C3H/HeN mice on Days −4 and −2. […] […] Body weights were also measured daily and colitis severity was determined by video endoscopy on Days 4 and 7. In the first study, RIVPA (SEQ ID NO. 5) (25 mg/kg IV) was administered either once on Day −4 immediately prior to chemotherapy, twice on Days −4 and −2 immediately after chemotherapy or 3 times on Days −1, 2 and 5. […] In the second study, RIVPA (SEQ ID NO. 5) (25 mg/kg IV) was administered on either Days −1, 2 and 5, Days −1, 1 and 3 or Days 0, 2, and 4. […] In the third study, RIVPA (SEQ ID NO. 5) (25 or 5 mg/kg IV, as indicated) was administered either on Days −1, 2 and 5 or on Days 1 and 3. […] Statistical significance was assessed for oral mucositis using a chi-square analysis and for body weight area under the curve (AUC) with an ANOVA on ranks. […] Treatment with R(tBg)V1KR(tBg)V2 (SEQ ID NO. 91) and RIV(mp2)A-NH2 (SEQ ID NO. 92) was administered on Days −1 and 2 at a dose of 25 mg/kg IV.
# [3] = test system: Gram-positive and Gram-negative infections; conditions: mouse, in vivo
# [4] = test system: cynomolgus monkey; assay: cardiovascular (CV)/pulmonary study in cynomolgus monkey; assay type: in vivo
# From the text: In summary, the major toxicological finding was an acute-onset respiratory depression, accompanied by labored breathing, recumbency and transient decreased activity.
# [5] = test system: leukopenic animals; assay: infection studies in leukopenic animals (antibiotic interference); assay type: in vivo
# [6] = test system: S. aureus; assay: S. aureus infection studies, single IV RIVPA treatment (Table 2 summary); assay type: in vivo, mouse; conditions: for % Successful Treatments Any Dose Schedule: success = at least 20% increase in survival over saline control
# [7] = test system: whole blood; assay: ex vivo LPS stimulation of whole blood from Phase 1 subjects; assay type: cell-based, human; conditions: dose range 0.15-2 mg/kg; 4 hours in vitro LPS stimulation of whole blood
# Method: In ex vivo investigations using blood samples obtained during the Phase 1 healthy human volunteer study, a number of cytokine and chemokine analytes were quantified after 4 hours of in vitro stimulation of whole blood with LPS. The inter-individual variability in analyte levels was larger than any variation in time or response to RIVPA (SEQ ID NO. 5) or placebo administration and the data were therefore self-normalized using the individual pre-dose analyte level to standardize all responses for each individual subject (the Activity Ratio). RIVPA (SEQ ID NO. 5) effects on the analyte Activity Ratios (ARs) were neither constant throughout time, nor linearly dose responsive.
# [8] = test system: mouse normal blood cells; assay: proliferation of mouse normal blood cells in vitro; assay type: cell-based
# [9] = test system: MRSA (UC6685); assay: MRSA peritoneal infection model in combination with vancomycin; assay type: in vivo, mouse; conditions: female CF-1 mice, 50 mg/kg IV 48 or 72 h prior to inoculation, with vancomycin 3 mg/kg SC 1 and 5 h after infection; 5 days
# Method: RIVPA (SEQ ID NO. 5) (50 mg/kg) or saline treatment was administered IV either 48 or 72 h prior to inoculation with MRSA (UC6685; 8.2×10^7 colony forming units [cfu]) to female CF-1 mice (N=10/group). Vancomycin treatment (3 mg/kg) was administered subcutaneously (SC), 1 and 5 h after infection. Survival was monitored once daily for 5 days.
# [10] = test system: S. aureus (Catalog No. 29213, ATCC); assay: S. aureus thigh abscess infection model in neutropenic mice; assay type: in vivo, mouse; conditions: neutropenic female Swiss albino mice, 50 mg/kg IM 24 h prior to infection; 24 h after infection
# Method: Female Swiss albino mice (N=8/group) were rendered neutropenic by treatment with Cp (100 mg/kg), 3 and 1 days before IM infection with S. aureus (Catalog No. 29213, ATCC, ^˜9.5×10^5 cfu). RIVPA (SEQ ID NO. 5) (50 mg/kg) was administered IM 24 h prior to infection and vancomycin (100 mg/kg) was administered SC at 1, 6 and 18 h after infection. The number of bacterial cfu present in the infected thigh was assessed 24 h after initiation of infection in each group.
# [11] = test system: MRSA (USA300); assay type: in vivo, mouse
# Method: Multiple studies with IV administered RIVPA (SEQ ID NO. 5) were conducted in a MRSA bacteremia model. […] In the first study, MRSA (USA300, 7.3 log 10 cfu) was administered via IV injection into the tail vein of female Balb/c mice at time 0. Four hours prior to infection, a single dose of saline or RIVPA (SEQ ID NO. 5) at the indicated dose levels was injected IV into the tail vein. Sub-optimal antibiotic treatment (linezolid, 6.25 mg/kg) was administered once orally immediately after infection. Survival was monitored for 21 days after the infection. In the second study, RIVPA (SEQ ID NO. 5) (IV) or saline (IV) was administered once 4 h prior to infection with MRSA (strain USA300, 7.0 log10 cfu) via the tail vein into female nu/nu mice.
# [12] = test system: Klebsiella pneumoniae (Catalog No. 43816, ATCC); assay: Klebsiella peritoneal infection model; assay type: in vivo, mouse
# Method: RIVPA (SEQ ID NO. 5) treatment (24 mg/kg) was administered either IP (24 h prior to infection or 4 h post-infection) or IV (4 h post-infection) to female Balb/c mice (N=8/group) inoculated with Klebsiella pneumoniae (Catalog No. 43816, ATCC) at either 2.8×10^5 cfu (FIG. 13—panel A) or 5.3×10^2 cfu (FIG. 13—panel B) and survival was monitored over 24 h. A survival endpoint is shown for animals receiving the higher inoculum of bacteria (panel A).
# [13] = mouse, 5-fluorouracil chemotherapy model, RIVPA IV
substance,measurement,setting,value
"RIVPA-NH2 [RIVPA (SEQ ID NO. 5), RIVPA]",inhibition of CYP450 enzymes,[1],lack
same,processing by CYP450 enzymes,[1],lack
same,treatment effectiveness on mucositis,"[2]; first study, 25 mg/kg IV 3 times on Days −1, 2 and 5",most effective
same,duration of severe oral mucositis,"[2]; mouse, 5-fluorouracil 60 mg/kg IP Days −4 and −2, chemical burn of tongue Day 0, RIVPA IV",reduces; also recorded: statistically significant reduction
same,body weight loss,[2]; [13],reduces
same,severity of colitis (video endoscopy),[2]; [13],reduces; also recorded: trend towards reduced colitis
same,efficacy at decreased dose levels,"[2]; third study, 5 vs 25 mg/kg IV",decreased efficacy
same,treatment effectiveness on mucositis,"[2]; third study, dosing every third day (Days −1, 2 and 5)",most effective
same,duration of pharmacodynamic effect,[3],up to 5 days
same,dose levels with consistent efficacy,[3]; iv,≥ 25 mg/kg
same,clinical signs,"[4]; 80 mg/kg, during dosing",transient drooping eye lids and prostration
same,clinical signs,[4]; 220 mg/kg,"transient, severe clinical signs"
same,respiratory/cardiovascular effects and mortality,"[4]; 220 mg/kg, 1 animal","marked reduction in respiratory rate followed by bradycardia, hypotension and death"
same,respiratory effects,[4]; 20 or 80 mg/kg,No respiratory effects
same,cardiac toxicity or QT prolongation,[4]; nonhuman primates,no cardiac toxicity or QT prolongation
same,cardiovascular effects and ECG parameters,[4]; single IV doses of 20 or 80 mg/kg,no cardiovascular effects or changes in electrocardiogram (ECG) parameters
same,interference with antibiotic efficacy,[5],no interference
same,dose dependence of effects,[6]; between 1 and 50 mg/kg in mouse,dose dependent
same,dose levels consistently demonstrating efficacy,"[6]; mouse, stand-alone IV",≥ 25 mg/kg
same,% Successful Treatments RIVPA administered 4 h prior to infection,[6]; single IV dose 1 mg/kg,0%
same,% Successful Treatments Any Dose Schedule,[6]; single IV dose 1 mg/kg,0%
same,% Successful Treatments RIVPA administered 4 h prior to infection,[6]; single IV dose 5 mg/kg,33%
same,% Successful Treatments Any Dose Schedule,[6]; single IV dose 5 mg/kg,42%
same,% Successful Treatments RIVPA administered 4 h prior to infection,[6]; single IV dose 25 mg/kg,50%
same,% Successful Treatments Any Dose Schedule,[6]; single IV dose 25 mg/kg,67%
same,% Successful Treatments RIVPA administered 4 h prior to infection,[6]; single IV dose 50 mg/kg,100%
same,% Successful Treatments Any Dose Schedule,[6]; single IV dose 50 mg/kg,100%
same,"anti-inflammatory status (TNF RII, IL-1ra vs TNFα, IL-1β Activity Ratios)",[7],evidence of an increase
same,proliferation of normal blood cells,[8],did not promote the proliferation
same,survival,[9],increased survival
same,bacterial load in the infected thigh,[10],significantly reduced
same,duration for which the survival benefit is sustained,[11]; FIG. 9,at least 21 days
same,time after initiation of infection at which administration still confers a survival benefit,[11]; MRSA bacteremia model (data not shown),up to 24 h
same,time prior to initiation of infection at which a single dose still confers a survival benefit,[11]; depending on dose level (data not shown),up to 5 days
same,survival over the saline control,"[11]; female Balb/c mice, single dose 50 mg/kg IV 4 h prior to infection, linezolid 6.25 mg/kg oral, 21 days",statistically significant enhanced survival
same,systemic versus local administration,[12]; 24 mg/kg IV vs IP,as good or better than local administration
same,survival at the lower inoculum,"[12]; 5.3×10^2 cfu, 24 h",survived in all groups
same,survival,"[12]; female Balb/c mice, 24 mg/kg IP or IV, 24 h",increased survival

# Source: patent publication US11311598B2, “Peptides and analogs for use in the treatment of oral mucositis” (Soligenix, Inc., priority 2013, dated 2022)
